# Measured values taken from paper PMC5889558, “The inhibition of human lung fibroblast proliferation and differentiation by Gs-coupled receptors is not predicted by the magnitude of cAMP response” (Respiratory Research, 2018).
# Entries after “also recorded” stand apart in the source; their conditions may differ.
# How the values were obtained:
# Assay type in all cases: cell-based
# [1] = test system: human lung fibroblasts (HLF); test: cAMP accumulation in HLF (HitHunter or AlphaScreen); settings: for EC50 / Emax: Homo sapiens, Fibroblast; for EC50: read-out: cAMP pEC50 (converted); for Emax: read-out: cAMP Emax (% max); for cAMP response (in words): acute cAMP accumulation
# Procedure: HLF were grown to confluency in 96-well white ViewPlates, before incubation with a range of agonist concentrations, or vehicle, for 2 h at room temperature in HBSS with 5 mM HEPES, 0.1% w/v HSA, and 5 μM rolipram. […] Rolipram was excluded when measuring cAMP levels in response to PDE inhibitors. cAMP levels were measured using either HitHunter cAMP assay or AlphaScreen competition assay following manufacturer protocol, and were assessed on either a BMG LABTEK ClarioStar or a Packard EnVision plate reader. cAMP concentrations in each well were determined using a standard curve. To account for the inter-assay variation in levels of cAMP produced in each experiment, data were normalized to the maximal forskolin response.
# [2] = test system: human lung fibroblasts (HLF); test: Cell viability assay, caspase-3/7 as marker of apoptosis; settings: 24 h
# Procedure: Cell viability was measured using caspase-3/7 expression as a marker of apoptosis after treatment for 24 h with test compounds. HLF were seeded overnight at 6,000 cells/well in 96-well black ViewPlates, before being starved for 24 hours in culture medium devoid of FBS. Cells were incubated for 24 hours in the presence of test compounds at the top concentrations used in the proliferation assays, or in the presence of 100 nM staurosporine to induce apoptosis.
# The presence of the apoptotic marker caspase-3/7 was detected by incubating cells with 8 μM CellEvent™ Caspase-3/7 Red Detection Reagent in dPBS with 5 % FBS, for 30 minutes at 37°C. […] Images were analyzed using a multi wavelength cell scoring algorithm within the MetaXpress 5.3 software, which measures cell number using stained nuclei, and percent of these cells positive for caspase-3/7 from Cy5 readouts. To account for the inter-assay variation in levels of caspase 3/7 detected in each experiment, data were normalized to the staurosporine response.
# Statistical significance across treatment groups was determined by using the one-way ANOVA with Dunnett’s multiple-comparison post hoc test.
# [3] = test system: human lung fibroblasts (HLF); test: HLF proliferation by BrdU incorporation (DELFIA), driven by FBS or PDGF; settings: for EC50 / Emax: Homo sapiens, Fibroblast, inhibition of BrdU incorporation, NC = not calculated due to incomplete curve; for EC50: mean ± SEM; for inhibition of FBS- and PDGF-driven proliferation (in words): either stimulus
# Procedure: Proliferation of HLF was measured by incorporation of bromodeoxyuridine (BrdU). HLF were seeded overnight at 4000 cells/well in 96-well black ViewPlates, before being starved for 24 h in culture medium devoid of FBS. Proliferation was measured after incubation with a range of concentrations of FBS or PDGF, in DMEM supplemented with 0.1% w/v HSA, for 24 h.
# For anti-remodelling assays using BrdU incorporation, cells were incubated for 24 h with a range of concentrations of test compounds in the presence of near maximal concentrations of FBS or PDGF in DMEM supplemented with 0.1% w/v HSA. Proliferation was assessed using the DELFIA BrdU incorporation assay kit following manufacturer protocol. Fluorescence was measured using a Packard EnVision plate reader. To account for the inter-assay variation in levels of proliferation in each experiment, data were normalized to the PDGF or FBS response.
# [4] = test system: human lung fibroblasts (HLF); test: Fibroblast to myofibroblast transdifferentiation (FMT), αSMA immunofluorescence, TGFβ-driven; settings: 48 h, TGFβ 0.3 ng/mL
# Procedure: To assess the differentiation of fibroblasts to the myofibroblast phenotype, immunofluorescence was used to monitor increases in α smooth muscle actin (αSMA). HLF were seeded overnight at 1000 cells/well in 384-well black clear bottom plates, before being starved for 24 h growth medium devoid of FBS.
# For anti-remodelling assays using FMT, cells were incubated for 48 h with a range of concentrations of test compounds and incubated for 48 h, at 37°C, 5% CO2 in the presence of a near maximal concentration of TGFβ (0.3 ng/mL), to promote differentiation in DMEM supplemented with 0.1% w/v HSA. Following stimulation, cells were fixed in 4% paraformaldehyde, washed 3× in PBS (with Ca^2+/Mg^2+), and incubated with permeabilising blocking buffer (dPBS (with Ca^2+/Mg^2+), 10% FBS (v/v), 0.1% Triton X-100 (v/v)) for 1 h at 37°C. Wells were then washed 3× in wash buffer (Tris Buffered Saline (TBS), 0.05% (v/v) Tween-20) and incubated with mouse anti-α SMA (1:1000 dilution in permeabilising blocking buffer) for 1 h at room temperature, with gentle shaking. Following 3× wash in wash buffer, wells were incubated with blocking buffer containing Hoechst to stain for nuclear DNA (2 μM), and FITC-conjugated Affini-pure goat […] IgG (1:1000 dilution in blocking buffer) for 30 min at 37°C. Fluorescence was then quantified on a widefield ImageXpress Micro microscope, with a Plan Fluor 20X objective, DAPI filter cube (excitation 400–418 nm, emission 435–470 nm), 50 ms exposure time for nuclei, and FITC filter cube (excitation 467–498 nm, emission 513–556 nm), 200 ms exposure time for αSMA.
# To quantify increases in αSMA fluorescence, a standard Multi-Wavelength Cell Scoring algorithm was used in MetaXpress 5.3 software (Molecular Devices, California, USA). To account for the inter-assay variation in levels of αSMA expression produced in each experiment, data were normalized to the response to TGFβ.
# [5] = HLF, 2 h, room temperature, 5 μM rolipram (excluded for PDE inhibitors), mean ± SEM, at least 3 experiments, NC = not calculated due to incomplete curve
# [6] = HLF, 2 h, percentage of the maximal forskolin response, mean ± SEM, NC = not calculated due to incomplete curve
# [7] = 24 h, EC80 concentration of PDGF, read-out: Proliferation vs PDGF pEC50 (converted)
# [8] = 24 h, EC80 concentration of serum, read-out: Proliferation vs serum pEC50 (converted)
# [9] = 24 h, EC80 PDGF, percentage of maximal proliferation observed with PDGF, read-out: Proliferation vs PDGF Emax (% max)
# [10] = 24 h, EC80 serum, percentage of maximal proliferation observed with serum, read-out: Proliferation vs serum Emax (% max)
# [11] = HLF, 1:10 dilution of top conc 10 μM
# [12] = HLF, top conc 10 μM, mean ± SEM, n=3
molecule,measurement,setting,value
CC#CCC(C)[C@H](O)/C=C/[C@@H]1[C@H]2c3cccc(CCCC(=O)O)c3O[C@H]2C[C@H]1O (mixture of isomers) [Beraprost],EC50,[1]; [5],0.105 µM
same,Emax,[1]; [6],107 ± 8.99%
CN[C@@H]1C[C@H]2O[C@@](C)([C@@H]1OC)n1c3ccccc3c3c4c(c5c6ccccc6n2c5c31)C(=O)NC4 [Staurosporine],"% cells positive for caspase-3/7, Top conc","[2]; HLF, top conc 100 nM",54.8 ± 13.6%
same,caspase-3/7 expression / apoptosis (in words),"[2]; HLF, one-way ANOVA with Dunnett's test",statistically significant cell apoptosis
COc1ccc(CC(C)NCC(O)c2ccc(O)c(NC=O)c2)cc1 (stereo not drawn) [Formoterol],EC50,[1]; 2 h,0.000417 µM
same,EC50,[3]; [7],0.000832 µM
same,EC50,[3]; [8],0.000263 µM
same,"% cells positive for caspase-3/7, 1:10 dilution","[2]; HLF, 1:10 dilution of top conc 100 nM",0.88 ± 0.48%
same,"% cells positive for caspase-3/7, Top conc","[2]; HLF, top conc 100 nM",0.67 ± 0.22%
CCc1cc2c(cc1CC)CC(NC[C@H](O)c1ccc(O)c3[nH]c(=O)ccc13)C2 [Indacaterol],maximal cAMP response,"[1]; HLF, % of the forskolin response",80%
same,EC50,[1]; [5],0.00263 µM
same,Emax,[1]; [6],83.3 ± 4.47%
same,Emax,[3]; [9],90.3 ± 5.25%
same,EC50,[3]; [7],0.00145 µM
same,EC50,[3]; [8],0.011 µM
same,Emax,[3]; [10],47.9 ± 1.58%
same,"% cells positive for caspase-3/7, 1:10 dilution","[2]; HLF, 1:10 dilution of top conc 1 μM",0.62 ± 0.15%
same,"% cells positive for caspase-3/7, Top conc","[2]; HLF, top conc 1 μM",0.62 ± 0.01%
COc1ccc(C2CNC(=O)C2)cc1OC1CCCC1 (stereo not drawn) [Rolipram],cAMP response (in words),[1]; HLF,no detectable cAMP accumulation
same,inhibition of FBS- and PDGF-driven proliferation (in words),"[3]; BrdU, 24 h",incapable of inhibiting the proliferation mediated by either stimulus
same,inhibition of TGFβ-driven FMT (in words),[4],full concentration-response curves could not be established
O=C(O)COc1cccc(-c2ocnc2-c2nc(-c3ccccc3)c(-c3ccccc3)o2)c1 [BMY-45778],cAMP pEC50,[1]; [5],7.25 ± 0.09
same,cAMP Emax (% max),[1]; [6],50.0 ± 4.59 % max
CC(C)(C)NCC(O)c1ccc(O)c(CO)c1 (stereo not drawn) [Salbutamol],EC50,[1]; [5],0.0437 µM
same,Emax,[1]; [6],68.9 ± 1.4%
same,Emax,[3]; [9],69.2 ± 5.53%
same,EC50,[3]; [7],0.0105 µM
same,EC50,[3]; [8],0.0912 µM
same,Emax,[3]; [10],32.4 ± 5.84%
same,"% cells positive for caspase-3/7, 1:10 dilution","[2]; human, 1 μM",0.53 ± 0.12%
same,"% cells positive for caspase-3/7, Top conc","[2]; human, 10 μM",0.46 ± 0.09%
CC#CCC(C)[C@H](O)/C=C/[C@@H]1[C@H]2C/C(=C/CCCC(=O)O)C[C@H]2C[C@H]1O (stereo partly drawn) [Iloprost],EC50,[1]; [5],0.0776 µM
same,Emax,[1]; [6],99.5 ± 7.22%
same,"% cells positive for caspase-3/7, 1:10 dilution","[2]; human, 0.3 μM",1.15 ± 0.29%
same,"% cells positive for caspase-3/7, Top conc","[2]; human, 3 μM",0.88 ± 0.08%
"CCCCC[C@H](O)/C=C/[C@H]1[C@H](O)CC(=O)[C@@H]1C/C=C\CCCC(=O)O [PGE2, prostaglandin E2]",EC50,[1]; [5],0.0457 µM
same,Emax,[1]; [6],85.5 ± 8.64%
same,Emax,[3]; [9],71 ± 3.86%
same,EC50,[3]; [7],0.00251 µM
same,EC50,[3]; [8],0.0912 µM
same,Emax,[3]; [10],43.1 ± 6.14%
same,"% cells positive for caspase-3/7, 1:10 dilution",[2]; [11],0.53 ± 0.04%
same,"% cells positive for caspase-3/7, Top conc",[2]; [12],0.68 ± 0.29%
"Alpha melanocortin stimulating hormone (Ac-SYSMEHFRWGKPV-NH2; ends and bridges not checked; UniProt P01189 138-150, looked up) [α-MSH, MC1, MC3, MC4, MC5 agonist]",cAMP response (in words),[1]; HLF,no detectable cAMP response
same,inhibition of FBS- and PDGF-driven proliferation (in words),"[3]; BrdU, 24 h",incapable of inhibiting the proliferation mediated by either stimulus
same,inhibition of TGFβ-driven FMT (in words),[4],full concentration-response curves could not be established
CCCCC(C)(O)C/C=C/[C@H]1[C@H](O)CC(=O)[C@@H]1CCCCCCC(=O)OC (mixture of isomers) [Misoprostol],EC50,[1]; [5],0.107 µM
same,Emax,[1]; [6],52.4 ± 6.23%
same,Emax,[3]; [9],94.1 ± 1.59%
same,EC50,[3]; [7],0.741 µM
same,EC50,[3]; [8],0.182 µM
same,Emax,[3]; [10],34.7 ± 0.71%
same,"% cells positive for caspase-3/7, 1:10 dilution","[2]; human, 1 μM",0.55 ± 0.04%
same,"% cells positive for caspase-3/7, Top conc","[2]; human, 10 μM",0.54 ± 0.18%
O=C(NOC[C@H](O)CO)c1ccc(F)c(F)c1Nc1ccc(I)cc1F [PD0325901],inhibition of PDGF-mediated proliferation (in words),[3]; 3 ng/mL PDGF,blocked PDGF-mediated proliferation of HLF
CCNC(=O)[C@H]1O[C@@H](n2cnc3c(N)nc(NCCc4ccc(CCC(=O)O)cc4)nc32)[C@H](O)[C@@H]1O [CGS-21680],cAMP response (in words),[1]; HLF,no detectable cAMP response
CC(C)Cn1c(=O)n(C)c(=O)c2[nH]cnc21 [IBMX],cAMP response (in words),[1]; HLF,no detectable cAMP accumulation; also recorded: did not observe any acute cAMP accumulation
same,inhibition of FBS- and PDGF-driven proliferation (in words),"[3]; BrdU, 24 h",some inhibition of both proliferation and FMT at higher concentrations
same,inhibition of TGFβ-driven FMT (in words),[4],full concentration-response curves could not be established; also recorded: some inhibition of both proliferation and FMT at higher concentrations
CCCC1([C@H](O)C/C=C/[C@H]2[C@H](O)CC(=O)[C@@H]2CCCCCCC(=O)OC)CCC1 [Butaprost],EC50,[1]; [5],1.55 µM
same,Emax,[1]; [6],8.76 ± 3.25%
same,maximal level of inhibition of serum-driven proliferation,"[3]; BrdU, 24 h, near maximal FBS",29%
same,EC50,[3]; [8],0.0646 µM
same,Emax,[3]; [10],29.1 ± 7.29%
same,"% cells positive for caspase-3/7, 1:10 dilution",[2]; [11],0.90 ± 0.39%
same,"% cells positive for caspase-3/7, Top conc",[2]; [12],0.80 ± 0.29%
